# Test results as given in ChEMBL document CHEMBL3507680, “University of Dundee, Gates Library screen for HepG2 cell viability”.
# Experiment: Human HepG2 cell viability assay in 384 well format
# Format: toxicity, cell-based
# Set-up: dose 125 nL, time 70.5 hour; cytotoxicity at 70.5 h: concentration not given beside the values
# Conditions: HepG2 cells, read-out: Inhibition
row,SMILES,cytotoxicity at 70.5 h [%]
1,Cc1cnn(CCNCc2ccc(OCc3noc(C)n3)cc2)c1,-6.14
2,O=C(CCNS(=O)(=O)c1ccccc1F)NCc1ccoc1,4.05
3,CC(C)(O)CSCCNCc1ccc(Cl)c2cccnc12,12.8
4,COCCCNC1CCCN(c2ccc(C)nn2)C1 (centres undefined),-9.97
5,Cc1cccc(S(=O)(=O)N2CSCC2C(=O)NC(C)(C)C)c1 (centres undefined),-3.48
6,CC(C)(C)NC(=O)C1CSCN1S(=O)(=O)c1ccccc1S(C)(=O)=O (centres undefined),-1.89
7,CC(C)(C)NC(=O)C1CSCN1S(=O)(=O)c1ccccc1F (centres undefined),-4.62
8,CN(c1ccc2ccccc2c1)S(=O)(=O)c1cc(C(=O)O)cs1,-8.18
9,O=C(NC1CCN(C2CC2)CC1)NC1CCOc2ccc(Br)cc21 (centres undefined),5.74
10,Cc1cccc(N(C)S(=O)(=O)c2cc(C(=O)O)cs2)c1C,-5.76
11,Cc1noc(Cl)c1CC(=O)NCC(C)(O)c1ccc(F)cc1F (centres undefined),10.7
12,CSCCc1ccc(NC(=O)NC(C)Cn2cncn2)cc1 (centres undefined),-2.38
13,COC(=O)NCC(=O)NCC(C)(C)c1cccc(C(F)(F)F)c1,-1.23
14,CC1CN(C2CCN(Cc3nccn3CC(F)(F)F)CC2)CCO1 (centres undefined),-9.54
15,CC(C)C(C#N)N1CCN(Cc2nccn2CC(F)(F)F)CC1 (centres undefined),-10.7
16,CCN(Cc1ccccc1)C1CCN(c2cc(C)nn2C)C1=O (centres undefined),-8.27
17,Cn1cc(C(=O)Nc2ccnc(Oc3ccccc3)c2)ccc1=O,-5.49
18,CN(C(=O)COC1CCCCC1)C1CCN(CC2CCOC2)CC1 (centres undefined),-1.92
19,O=C(C[S+]([O-])Cc1c(F)cccc1Cl)N1CCc2sccc2C1 (centres undefined),-6.1
20,O=C(C[S+]([O-])Cc1ccc(F)cc1Cl)N1CCc2sccc2C1 (centres undefined),-6.4

row,SMILES,cytotoxicity at 70.5 h [%]
1,COC(=O)c1sc(NCc2ccc(N3CCC(O)CC3)c(F)c2)nc1Cl,-4.16
2,Cc1c(C(=O)NC2(C#N)CCCC2)nnn1-c1ccccc1Cl,-9.11
3,Cc1c(C(=O)NC2(C#N)CCSC2)cnn1-c1ccccc1Cl (centres undefined),1.06
4,CN(CC(=O)N(C)C1CCN(CC2CCOC2)CC1)c1ccccc1 (centres undefined),-4.84
5,CCn1cc(NC(=O)c2cccc(OCC(F)(F)F)n2)cn1,-7.52
6,O=c1c2cccnc2cnn1CC(O)c1cccc(C(F)(F)F)c1 (centres undefined),11.1
7,CN1CCN(S(=O)(=O)c2cccc(C#N)c2)c2ccc(F)cc21,0.333
8,Cc1cc(C(=O)NC2CC(=O)N(C(C)C)C2=O)c(C)n1C(C)C (centres undefined),-7.47
9,O=C(NCCOc1ccc(C(F)(F)F)cn1)c1ccoc1,-6.01
10,Cc1nc(C)c(C(=O)NCCOc2ccc(C(F)(F)F)cn2)o1,-3.32
11,Cc1occc1C(=O)NCCOc1ccc(C(F)(F)F)cn1,18.8
12,CC(NCc1cnc(C2CCC2)s1)c1ccccc1-n1cccn1 (centres undefined),-3.26
13,CCc1nnc2ccc(NCC3(O)CCOCC3)nn12,-7.18
14,CC(NCc1cnc(C2CCC2)s1)c1ccc(-n2cccn2)cc1 (centres undefined),-8.33
15,CN(C(=O)COC1CCCC1)C1CCN(CC2CCOC2)CC1 (centres undefined),-11.5
16,CNC(=O)CCCNCc1c(C)nn(CC(C)C)c1N(C)C,0.675
17,CC(C)=CCS(=O)(=O)Cc1noc(CC(C)C)n1,-1.31
18,CN(CC(=O)Nc1cccc(F)c1)Cc1nc(N)nc(N(C)C)n1,1.01
19,O=S(=O)(N1CCOCC1)N1CCc2sccc2C1,6.06
20,CN(C)c1nc(N)nc(CSCCC(=O)Nc2cccc(Cl)c2)n1,19.2

row,SMILES,cytotoxicity at 70.5 h [%]
1,CC(C)c1noc(CS(=O)(=O)Cc2nc(C(C)C)no2)n1,-7.1
2,O=S(=O)(c1ccccc1)N1CCN(Cc2ccc(F)cc2Br)CC1,-8.77
3,O=C(c1cc(Cl)c2c(c1)OCCCO2)N(CC1CCOC1)C1CC1 (centres undefined),-7.67
4,CC(C)S(=O)(=O)CC(=O)N(Cc1ccsc1)c1ccccc1,-7.19
5,Cn1cc(NC(=O)Cc2cccs2)c(=O)n(C)c1=O,-9.77
6,N#Cc1nccnc1N1CCC(CSc2ccccc2)C1 (centres undefined),-9.74
7,O=S(=O)(N1CCCC1)N1CCc2sccc2C1,0.675
8,CCc1nc(C)ncc1C(=O)N1CCN(CC)c2ccccc21,8.71
9,CCc1nc(C)ncc1C(=O)N1CC(=O)N(C)c2ccccc21,-10.1
10,COc1ncc(Cl)c(NCc2ccc(C(=O)N(C)C)cc2)n1,27.7
11,N#Cc1nccnc1N1CCC(OCCCc2ccccc2)C1 (centres undefined),-6.29
12,CCc1nc(C)ncc1C(=O)N1CC(C)CN(C)c2ccccc21 (centres undefined),-7.55
13,Cc1nc(C2CCCN2Cc2cc(Cl)c3c(c2)OCCO3)no1 (centres undefined),16.9
14,COC1CCCN(C(=O)NCCCF)C1 (centres undefined),-2.7
15,Cc1ccc(C2CN(Cc3cnc(-c4ccccn4)s3)CCO2)o1 (centres undefined),22.5
16,N#CCCN(CCC#N)C(=O)CN(C1CC1)C1CCc2ccccc21 (centres undefined),-2.92
17,CC(NC(=O)C1CCCC1)c1nc(-c2ccccc2)c[nH]1 (centres undefined),1.26
18,CCOc1ccc(NC(=O)N2CCNC(=O)C2)c(C(F)(F)F)c1,1.37
19,O=C(O)CSc1nc(-c2ccc3c(c2)CCC3)n[nH]1,2.18
